Measurements as given in US4368203A, “Antibiotics and derivatives thereof having β-lactamase inhibitory activity and production thereof” (priority 1977, dated 1983).
Converted amounts (≈) assume the structure as drawn. “Also recorded” adds a separate entry of the source. Read-outs that look alike come from different tables or passages of the source.

Columns and labels:
[1] = test system: Alcaligenes faecalis B-326; assay: MIC, broth dilution method; format: cell-based; conditions: Alcaligenes faecalis, B326, read-out: Minimum inhibitory concentration
Procedure: (§1) Sodium salt of the antibiotic PS-7 was dissolved and diluted with the BRAIN HEART INFUSION BROTH "Eiken" at a concentration between 5 μg/ml and 100 μg/ml. The solution was further diluted with the same medium to obtain a series of geometric concentrations. To the serial dilutions were added the seed cultures prepared by shaking culture of various test microorganisms shown in Tab. 5 in the BRAIN HEART INFUSION GROTH at 28° C. for 18 hours, the final cell count being about 1×10^5 /ml. […] The lowest concentration at which no cell growth was observed was the minimum inhibitory concentration of the antibiotic PS-7 on the test microorganism. […] . The minimum inhibitory concentrations on test strains were determined in the same manner as mentioned above. […] For the comparison, the results on the known antibiotics Cephazolin and Cefoxitin are also given in the same table.

[2] = test system: Citrobacter freundii E-9; assay: MIC, broth dilution method; format: cell-based; conditions: Citrobacter freundii, read-out: Minimum inhibitory concentration
Procedure: as §1

[3] = test system: Enterobacter cloacae E-16; assay: MIC, broth dilution method; format: cell-based; conditions: Enterobacter cloacae, read-out: Minimum inhibitory concentration
Procedure: Sodium salt of the antibiotic PS-7 was dissolved and diluted with the BRAIN HEART INFUSION BROTH "Eiken" at a concentration between 5 μg/ml and 100 μg/ml. The solution was further diluted with the same medium to obtain a series of geometric concentrations. To the serial dilutions were added the seed cultures prepared by shaking culture of various test microorganisms shown in Tab. 5 in the BRAIN HEART INFUSION GROTH at 28° C. for 18 hours, the final cell count being about 1×10^5 /ml. […] The lowest concentration at which no cell growth was observed was the minimum inhibitory concentration of the antibiotic PS-7 on the test microorganism. […] The minimum inhibitory concentrations on test strains were determined in the same manner as mentioned above.

[4] = Acute toxicity, intraperitoneal administration; format: in vivo, DDY male mice
[5] = test system: Inducible penicillinase of Bacillus cereus 569 (ATCC 27348); assay: Susceptibility to beta-lactamase as enzymic substrate; format: biochemical; conditions: for Km: 30° C., pH 6.8 phosphate buffer, decrease of optical density at 301 nm (PS-6) or 308 nm (PS-7); for Behavior against β-lactamase: β-lactamase of Bacillus cereus
Procedure: (b) Inducible penicillinase of Bacillus cereus 569 (ATCC 27348). This beta-lactamase was induced by ampicillin and purified by CM-cellulose column chromatography.
Time course of the hydrolysis was traced at 30° C. by determining the decrease in optical density at 301 nm which corresponds specifically to the concentration of antibiotic PS-6. As described in Japanese Patent Application No. 94651/77, the antibiotic PS-5 sodium salt preparation gave a E1 cm^1% value of 267.5 at the λmax of 301 nm. If this preparation contained no water of crystallization, its epsilon value would be 8560.
As 5% of the initial optical density of antibiotic PS-5 at 301 nm remained even after the complete decomposition with hydroxylamine or beta-lactamase, the differential optical density of this substrate at 301 nm was supposed to be Δε=8132. This was supposed to be applicable to the antibiotic PS-6, and the following calculation was carried out.
(b) Inducible penicillinase of Bacillus cereus 569. Time course of the hydrolysis of antibiotic PS-6 by this beta-lactamase was followed under the above-described conditions by determining the optical density at 301 nm of the reaction mixtures containing 7.5 μl of the above mentioned enzyme preparation and […] of antibiotic PS-6 as the substrate in a total of 3.0 ml (final concentration of antibiotic PS-6=[…]/ml=8.63 μg/ml; optical density at 301 nm=0.366).
The behavior of the antibiotic PS-7 (sodium salt) against the induced-type penicillinase produced by Bacillus careus 569 (ATCC 27348) as the substrate was examined according to the following method:
Sodium salt of the antibiotic PS-7 was dissolved in 100 mM phosphate buffer solution (pH 6.8) at the indicated concentration.
The induced-type penicillinase of Bacillus cereus 569 (ATCC 27348) was induced by Ampicillin and partially purified by CM cellulose (Brown Co.) column chromatography.
The solution of the antibiotic PS-7 that was served as the substrate was warmed at 30° C. […] The reaction was carried out at 30° C. and a decrease in the substrate, antibiotic PS-7, was monitered by the absorbance at 308 nm.
A balance of absorbance at 308 nm was determined to be ε=9720 on the assumption that the ε value of the antibiotic PS-7 is 10,800 based on the decrease in the absorbance when pure preparation of the antibiotic PS-7 was completely decomposed by the enzyme above mentioned.
A reaction mixture containing 10 μl of the penicillinase preparation and 102 mμ moles of the antibiotic PS-7 (final concentration: 34 mμ moles/ml) in a total volumn of 3.0 ml was incubated under the conditions mentioned above and change of decreasing concentration of the antibiotic PS-7 was measured in relation to the incubation time.

[6] = Stability (general statements); format: physicochemical; conditions: general statement
[7] = test system: β-lactamase-producing, β-lactam-resistant bacteria; assay: Increase of the antibiotic activity of other antibiotics (summary in words); format: cell-based; conditions: β-lactamase-producing bacteria such as Proteus vulgaris, Serratia marcescens
Procedure: 10 ml of 2.5 folds diluted nutrient agar (pH 7.0) containing 50 μg/ml of penicillin G or cephaloridine was seeded with the β-lactamase producing and β-lactam-resistant microorganisms and poured in a 9 cm Petri dish to provide the bio-assay agar plate. […] A control assay plate was similarly prepared without penicillin G or cephaloridine. As reference antibiotics, 10,000 μg/ml of penicillin G or 20 μl of cephaloridine were disc-assayed under the same conditions.
Cepholoridine was added to a 2.5-times diluted nutrient agar, pH 7.0 and the medium was inoculated with a β-lactam-producing strain that produceds β-lactamase. Ten ml of the medium was spread and solidified in a petri dish of 9 cm in diameter to prepare an assay plate. […] Each 20 μl of the solution and its 2- and 4-times diluted solutions was soaked in a pulp disc of 8 mm in diameter. To the surface of the above nutrient agar was placed the pulp disc and the size of the growth inhibitory zone around the disc was examined after incubation at 35° C. for 18 hours. […] In addition, for the comparison, a similar experiment was also performed with a pulp disk soaked with 20 μl of 10,000 μg/ml Penicillin G or Cepholoridine solution in place of the antibiotic PS-7.

| Structure (SMILES) | MIC ([1]; Table 5, 35° C. 20 hours) | MIC ([2]; E9, 20 h, Table 5, betalactamase producer) | MIC ([3]; E16, 20 h, Table 5, betalactamase producer) | Acute toxicity ([4]; mice, 500 mg/kg) | Acute toxicity ([4]; mice, 500 mg/kg, listed as PS-6 sodium salt) | Km [5] | Behavior against β-lactamase [5] | Stability [6] | Synergistic enhancement of the activity of penicillin G or cephaloridine (β-lactam antibiotics) [7] | MIC ([1]; Table 7, no unit in the head) | MIC ([2]; E9, Table 7, no unit in the head, lactamase-producing strain) | MIC ([3]; E16, Table 7, no unit in the head, lactamase-producing strain) | Acute toxicity ([4]; DDY male mice, dose not given) |
| --- | --- | --- | --- | --- | --- | --- | --- | --- | --- | --- | --- | --- | --- |
| CC(=O)NCCSC1=C(C(=O)O)N2C(=O)C(C(C)C)C2C1 (stereo not drawn) [Antibiotic PS-6] | 1.56 µg/mL (≈ 4.99 µM) | 12.5 µg/mL (≈ 40 µM) | 25 µg/mL (≈ 80 µM) | no toxicity | No acute toxicity | 17.7 µM | inactivated | somewhat labile; also recorded: more stable in the salt form than in the free acid state | showed clearly the synergistic effect; also recorded: ability to increase the antibiotic activity of other antibiotics | – | – | – | – |
| CCC1C(=O)N2C(C(=O)O)=C(SC=CNC(C)=O)CC12 (stereo not drawn) [Antibiotic PS-7] | – | – | – | no acute toxicity | – | 13 µM | inactivated | somewhat labile; also recorded: more stable in the salt form than in the free acid state | ability to enhance antimicrobial activity of other antibiotics; also recorded: evident enhancement of antimicrobial activity | 0.78 µg/mL (≈ 2.63 µM) | 3.13 µg/mL (≈ 10.6 µM) | 6.25 µg/mL (≈ 21.1 µM) | No acute toxicity |
